Experimental data: ChEMBL document CHEMBL5360657, “Discovery of the TLR7/8 Antagonist MHV370 for Treatment of Systemic Autoimmune Diseases” (ACS Med Chem Lett, 2023)
In brackets after ≈: the same amount, converted by molar mass.

Key:
Toll-like receptor 7 = target: T1, Toll-like receptor 7 (Mus musculus, UniProt P58681); assay: Antagonist activity at TLR7 in mouse Splenocyte assessed as reduction in IFN-alpha level measured after 20 hrs by Spectramax M5 method; format: cell-based
T1 sequence (P58681 whole entry): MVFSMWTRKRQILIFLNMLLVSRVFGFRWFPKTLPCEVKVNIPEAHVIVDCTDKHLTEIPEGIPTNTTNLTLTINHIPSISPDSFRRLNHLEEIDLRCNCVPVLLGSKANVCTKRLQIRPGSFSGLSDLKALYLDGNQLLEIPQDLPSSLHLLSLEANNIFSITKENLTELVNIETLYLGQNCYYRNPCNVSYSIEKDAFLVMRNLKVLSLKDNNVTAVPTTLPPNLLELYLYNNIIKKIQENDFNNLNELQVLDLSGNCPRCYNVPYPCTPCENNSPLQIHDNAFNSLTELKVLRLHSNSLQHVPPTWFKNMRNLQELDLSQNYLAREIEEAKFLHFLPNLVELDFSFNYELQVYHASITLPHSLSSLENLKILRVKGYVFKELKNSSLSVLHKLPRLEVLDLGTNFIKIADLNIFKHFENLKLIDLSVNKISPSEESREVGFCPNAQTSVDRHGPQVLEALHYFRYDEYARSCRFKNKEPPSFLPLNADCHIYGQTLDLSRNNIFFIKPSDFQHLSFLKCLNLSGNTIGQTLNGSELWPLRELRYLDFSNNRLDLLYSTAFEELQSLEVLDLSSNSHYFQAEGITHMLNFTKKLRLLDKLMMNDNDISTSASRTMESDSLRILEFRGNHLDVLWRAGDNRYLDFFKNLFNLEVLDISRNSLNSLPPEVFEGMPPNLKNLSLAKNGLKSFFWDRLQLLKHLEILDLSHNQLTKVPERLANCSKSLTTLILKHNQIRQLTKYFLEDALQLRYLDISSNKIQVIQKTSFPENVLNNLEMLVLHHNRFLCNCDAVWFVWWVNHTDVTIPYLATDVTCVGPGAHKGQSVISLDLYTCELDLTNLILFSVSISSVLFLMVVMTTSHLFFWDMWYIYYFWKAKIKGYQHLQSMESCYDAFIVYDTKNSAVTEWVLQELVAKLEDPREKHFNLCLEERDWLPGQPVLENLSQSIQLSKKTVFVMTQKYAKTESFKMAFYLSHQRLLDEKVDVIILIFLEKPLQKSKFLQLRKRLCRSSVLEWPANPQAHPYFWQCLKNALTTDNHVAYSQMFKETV

[1] = target: Voltage-gated inwardly rectifying potassium channel KCNH2 (Homo sapiens, UniProt Q12809); assay: Displacement of [3H]-dofetilite from human ERG (unknown origin); format: toxicity
Voltage-gated inwardly rectifying potassium channel KCNH2, sequence (Q12809 whole entry): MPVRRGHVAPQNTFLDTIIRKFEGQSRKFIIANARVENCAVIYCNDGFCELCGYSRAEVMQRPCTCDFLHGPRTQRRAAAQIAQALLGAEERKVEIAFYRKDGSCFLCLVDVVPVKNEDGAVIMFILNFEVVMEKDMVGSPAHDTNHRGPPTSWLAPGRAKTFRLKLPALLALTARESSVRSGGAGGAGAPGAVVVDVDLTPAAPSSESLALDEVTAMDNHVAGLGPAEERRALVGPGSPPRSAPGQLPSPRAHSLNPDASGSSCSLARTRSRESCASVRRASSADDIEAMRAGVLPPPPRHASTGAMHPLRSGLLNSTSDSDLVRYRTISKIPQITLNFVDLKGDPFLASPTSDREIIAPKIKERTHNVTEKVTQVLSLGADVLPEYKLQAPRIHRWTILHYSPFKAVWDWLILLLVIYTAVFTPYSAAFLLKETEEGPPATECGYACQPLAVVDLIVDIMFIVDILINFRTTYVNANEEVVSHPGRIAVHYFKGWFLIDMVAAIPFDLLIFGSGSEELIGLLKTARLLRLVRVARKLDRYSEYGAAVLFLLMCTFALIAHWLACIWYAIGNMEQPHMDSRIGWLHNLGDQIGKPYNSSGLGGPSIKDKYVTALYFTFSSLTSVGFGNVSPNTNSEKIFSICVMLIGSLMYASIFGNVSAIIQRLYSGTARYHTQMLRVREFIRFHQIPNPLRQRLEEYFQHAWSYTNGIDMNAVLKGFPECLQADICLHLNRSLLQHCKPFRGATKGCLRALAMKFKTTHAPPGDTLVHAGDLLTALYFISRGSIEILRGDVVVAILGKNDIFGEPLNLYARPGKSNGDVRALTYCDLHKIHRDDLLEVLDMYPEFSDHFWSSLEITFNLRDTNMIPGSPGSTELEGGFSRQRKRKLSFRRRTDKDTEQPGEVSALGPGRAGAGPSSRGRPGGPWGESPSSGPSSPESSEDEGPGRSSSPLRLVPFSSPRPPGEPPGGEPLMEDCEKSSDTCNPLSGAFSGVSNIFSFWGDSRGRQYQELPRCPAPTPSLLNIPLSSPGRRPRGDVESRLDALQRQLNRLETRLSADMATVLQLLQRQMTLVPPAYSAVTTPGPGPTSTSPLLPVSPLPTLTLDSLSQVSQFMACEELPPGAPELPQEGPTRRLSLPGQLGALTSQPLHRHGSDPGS

[2] = Solubility of the compound; format: physicochemical

For Cc1cc(-c2cnc(OCC34CCC(N)(CC3)CC4)c(C)c2)c2cnn(C)c2n1, the IC50 (Toll-like receptor 7) was < 0.005 µM, the IC50 [1] was 3.4 µM and the solubility [2] was 110 µM (≈ 43.1 µg/mL).
